In patent US9730944B2, “Antiviral activity of novel bicyclic heterocycles” (priority 2010, dated 2017):
Converted amounts (≈) assume the structure as drawn.

Legend:
hRV-45 = test: Rhinovirus type 45 antiviral assay in Hela Rh cells, MTS readout; assay type: cell-based, Human rhinovirus; settings: Human rhinovirus sp., HRV45, HeLa Rh, Hela Rh cells; read-out: hRV-45 EC50
hRV-9 = test: Rhinovirus type 9 antiviral assay in Hela Rh cells, MTS readout; assay type: cell-based, Human rhinovirus; settings: Human rhinovirus sp., HRV9, HeLa Rh, Hela Rh cells; read-out: hRV-9 EC50
hRV-63 = test: Rhinovirus type 63 antiviral assay in Hela Rh cells, MTS readout; assay type: cell-based, Human rhinovirus; settings: Human rhinovirus sp., HRV63, HeLa Rh, Hela Rh cells; read-out: hRV-63 EC50
[1] = Cytostatic/cytotoxic effect in Hela Rh cells (rhinovirus methodology, MTS); settings: human, CC50, Hela Rh cells
hRV-42 = test: Rhinovirus type 42 antiviral assay in Hela Rh cells, MTS readout; assay type: cell-based, Human rhinovirus; settings: Human rhinovirus sp., HRV42, HeLa Rh, Hela Rh cells; read-out: hRV-42 EC50
hRV-70 = test: Rhinovirus type 70 antiviral assay in Hela Rh cells, MTS readout; assay type: cell-based, Human rhinovirus; settings: Human rhinovirus sp., HRV70, HeLa Rh, Hela Rh cells; read-out: hRV-70 EC50
hRV-39 = test: Rhinovirus type 39 antiviral assay in Hela Rh cells, MTS readout; assay type: cell-based, Human rhinovirus; settings: Human rhinovirus sp., HRV39, HeLa Rh, Hela Rh cells; read-out: hRV-39 EC50
hRV-14 = test: Rhinovirus type 14 antiviral assay in Hela Rh cells, MTS readout; assay type: cell-based, Human rhinovirus; settings: Rhinovirus B, HRV14, HeLa Rh, Hela Rh cells; read-out: hRV-14 EC50
hRV-2 = test: Rhinovirus type 2 antiviral assay in Hela Rh cells, MTS readout; assay type: cell-based, Human rhinovirus; settings: Rhinovirus A, HRV2, HeLa Rh, Hela Rh cells; read-out: hRV-2 EC50
hRV-15 = test: Rhinovirus type 15 antiviral assay in Hela Rh cells, MTS readout; assay type: cell-based, Human rhinovirus; settings: Human rhinovirus sp., HRV15, HeLa Rh, Hela Rh cells; read-out: hRV-15 EC50
hRV-41 = test: Rhinovirus type 41 antiviral assay in Hela Rh cells, MTS readout; assay type: cell-based, Human rhinovirus; settings: Human rhinovirus sp., HRV41, HeLa Rh, Hela Rh cells; read-out: hRV-41 EC50
hRV-72 = test: Rhinovirus type 72 antiviral assay in Hela Rh cells, MTS readout; assay type: cell-based, Human rhinovirus; settings: Human rhinovirus sp., HRV72, HeLa Rh, Hela Rh cells; read-out: hRV-72 EC50
hRV-85 = test: Rhinovirus type 85 antiviral assay in Hela Rh cells, MTS readout; assay type: cell-based, Human rhinovirus; settings: Human rhinovirus sp., HRV85, HeLa Rh, Hela Rh cells; read-out: hRV-85 EC50
hRV-29 = test: Rhinovirus type 29 antiviral assay in Hela Rh cells, MTS readout; assay type: cell-based; settings: Human rhinovirus sp., HRV29, HeLa Rh, Hela Rh cells; read-out: hRV-29 EC50
hRV-86 = test: Rhinovirus type 86 antiviral assay in Hela Rh cells, MTS readout; assay type: cell-based, Human rhinovirus; settings: Human rhinovirus sp., HRV86, HeLa Rh, Hela Rh cells; read-out: hRV-86 EC50
[2] = Cytotoxicity in HCV-1a replicon cells, Promega CellTiter-Glo cell viability assay
[3] = tested on: genotype 1a H-77 replicon; test: HCV-1a replicon potency in RLuc-1 cells, bioluminescence; assay type: cell-based
[4] = Cytotoxicity in G-luc replicon cells, Promega CellTiter-Glo cell viability assay; settings: G-luc (GLuc-1) HCV genotype 1a H-77 replicon cells
genotype 1b replicon = test: HCV genotype 1b replicon potency in R-luc cells, bioluminescence; assay type: cell-based; settings: Hepatitis C virus; 72 hours, average of two or more independent experiments ± std. dev; read-out: Stable replicon cell lines EC50 (μM) Genotype1b (R-luc)
[5] = tested on: genotype 1a H-77 replicon; test: HCV genotype 1a replicon potency in GLuc-1 cells, bioluminescence; assay type: cell-based; settings: Hepatitis C virus; 72 hours, average of two or more independent experiments ± std. dev; read-out: Stable replicon cell lines EC50 (μM) Genotype 1a (Gluc-1)
[6] = tested on: infectious genotype 2a virus (a J6/JFH-1 chimera); test: JFH-1 HCV-2a virus assay in Lunet-CD81 cells, NS3 expression readout; assay type: cell-based; settings: Hepatitis C virus, 72 h, read-out: Genotype 2a Virus (Lunet-CD81) EC50 (μM)

SMILES	EC50 (hRV-45)	EC50 (hRV-9)	EC50 (hRV-63)	CC50 [1]	EC50 (hRV-42)	EC50 (hRV-70)	EC50 (hRV-39)	EC50 (hRV-14)	EC50 (hRV-2)	EC50 (hRV-15)	EC50 (hRV-41)	EC50 (hRV-72)	EC50 (hRV-85)	EC50 (hRV-29)	EC50 (hRV-86)	further results
Nc1nc(N2CCN(C(=O)COc3ccc(O)cc3)CC2)c2nc(CCc3ccc(F)cc3)sc2n1 [Example 224, 1-(4-(5-amino-2-(4-fluorophenethyl)thiazolo[5,4-d]pyrimidin-7-yl)piperazin-1-yl)-2-(4-hydroxyphenoxy)ethanone]	4.55 µg/mL (≈ 8.95 µM)	0.89 µg/mL (≈ 1.75 µM)	25.4 µg/mL (≈ 49.8 µM)	> 50 µg/mL	> 50 µg/mL	8.62 µg/mL (≈ 16.9 µM)	0.32 µg/mL (≈ 0.629 µM)	3.44 µg/mL (≈ 6.76 µM)	0.66 µg/mL (≈ 1.3 µM)	2.32 µg/mL (≈ 4.56 µM)	2.26 µg/mL (≈ 4.44 µM)	> 50 µg/mL	2.09 µg/mL (≈ 4.11 µM)	0.49 µg/mL (≈ 0.963 µM)	20 µg/mL (≈ 39.4 µM)	
COc1cccc(CCc2nc3c(N4CCN(C(=O)COc5ccc(Br)cc5)CC4)nc(N)nc3s2)c1 [Example 254, 1-(4-(5-amino-2-(3-methoxyphenethyl)thiazolo[5,4-d]pyrimidin-7-yl)piperazin-1-yl)-2-(4-bromophenoxy)ethanone]	4.87 µg/mL (≈ 8.35 µM)	1.26 µg/mL (≈ 2.16 µM)	5.85 µg/mL (≈ 10 µM)	> 50 µg/mL	2.41 µg/mL (≈ 4.13 µM)	4.77 µg/mL (≈ 8.17 µM)	1.18 µg/mL (≈ 2.02 µM)	1.23 µg/mL (≈ 2.11 µM)	1.3 µg/mL (≈ 2.23 µM)	3.44 µg/mL (≈ 5.9 µM)	13 µg/mL (≈ 22.3 µM)	9.05 µg/mL (≈ 15.5 µM)	3.99 µg/mL (≈ 6.84 µM)	1.27 µg/mL (≈ 2.18 µM)	4.62 µg/mL (≈ 7.92 µM)	
COc1ccc(OCC(=O)N2CCN(c3nc(N)nc4sc(CCc5ccc(Br)cc5)nc34)CC2)cc1 [Example 298, 1-(4-(5-amino-2-(4-bromophenethyl)thiazolo[5,4-d]pyrimidin-7-yl)piperazin-1-yl)-2-(4-methoxyphenoxy)ethanone]	4.56 µg/mL (≈ 7.81 µM)	0.55 µg/mL (≈ 0.943 µM)	3.9 µg/mL (≈ 6.68 µM)	> 50 µg/mL	1.2 µg/mL (≈ 2.06 µM)	4.71 µg/mL (≈ 8.07 µM)	0.45 µg/mL (≈ 0.771 µM)	1.23 µg/mL (≈ 2.11 µM)	0.45 µg/mL (≈ 0.771 µM)	1.61 µg/mL (≈ 2.76 µM)	10.4 µg/mL (≈ 17.8 µM)	6.52 µg/mL (≈ 11.2 µM)	2.21 µg/mL (≈ 3.79 µM)	0.89 µg/mL (≈ 1.53 µM)	4.58 µg/mL (≈ 7.85 µM)	
Nc1nc(N2CCN(C(=O)COc3ccc(F)cc3)CC2)c2nc(-c3ccc(F)cc3)sc2n1 [Example 233, 1-(4-(5-amino-2-(4-fluorophenyl)thiazolo[5,4-d]pyrimidin-7-yl)piperazin-1-yl)-2-(4-fluorophenoxy)ethanone]	< 0.39 µg/mL	< 0.02 µg/mL	< 0.39 µg/mL	> 50 µg/mL	< 0.39 µg/mL	< 0.39 µg/mL	< 0.02 µg/mL	< 0.02 µg/mL	< 0.02 µg/mL	< 0.02 µg/mL	< 0.39 µg/mL	0.88 µg/mL (≈ 1.82 µM)	< 0.39 µg/mL	< 0.02 µg/mL	< 0.39 µg/mL	
Cc1nc2c(N3CCN(C(=O)COc4ccc(Cl)cc4)CC3)nc(N)nc2[nH]1 [Example 400, 1-(4-(2-amino-8-methyl-9H-purin-6-yl)piperazin-1-yl)-2-(4-chlorophenoxy)ethanone]																CC50 at 72 h [2]: > 44400 nM; HCV-1a Replicon Selectivity Index ([3]; CC50/EC50, genotype 1a replicon): >164; EC50 ([3]; Hepatitis C virus, 72 h, read-out: HCV-1a Replicon EC50 (μM)): 0.3 µM; CC50 at 72 h [4]: > 50000 nM; EC50 (genotype 1b replicon): 0.188 ± 0.012 µM; EC50 [5]: 0.125 ± 0.035 µM; EC50 [6]: > 50 µM
